Experiments:
[1] = Oxidative stability index (OSI); assay type: physicochemical; conditions: 80° C., air flow […]
Procedure: Oxidative stability index (OSI). An Oxidative Stability Instrument (Omnion, Rockland, Mass.) was used to measure induction times. Five grams of tricaprylin, EPAX 5500 (fish oil TAG, Pronova Biocare, Sandefjord, Norway), and SL which was deacidified by alkali-liquid extraction were placed into the disposable borosilicate glass reaction tubes with disposable pipets. The heating temperature was 80° C. The polycarbonate conductivity tubes were filled with deionized water and he probes were connected. After temperature reached 80° C., air was bubbled in. […] OSI time was determined with an on-line computer, which monitored the conductivity vs time and plotted the induction period automatically. OSI values at 80° C. were converted to AOM and OSI values at 97.8° C.

[2] = TBA (2-thiobarbituric acid) lipid oxidation test; assay type: physicochemical; conditions: 1, 2, and 4% α-tocopherol in SL, after 48 hours
Procedure: TBA. A modified extraction 2-thiobarbituric acid method was used, Salih, et al., Poult. Sci., 66:1483-1488 (1987). The TBA test expresses lipid oxidation in milligram malonaldehyde (secondary oxidation product of polyunsaturated fatty acids) per kilogram of sample. 1±0.002 grams of SL was mixed with 0.01, 0.02, and 0.04 grams of α-tocopherol in a 25 mL flask and left at room temperature without protection from light for 12, 24, and 48 hours. Each sample was then purged with nitrogen and stored at −90° C. until assay. One milliliter of 6% BHT in ethanol and 25 mL 5% TCA solution in distilled water were added to each sample and blended. A 2 mL aliquot of the blended sample was mixed with 0.02 M TBA solution (3 mL) in screw capped test tubes. After vortexing (30 sec.), the tubes were incubated in boiling water for 30 min., cooled and the absorbance against blank was measured at 535 nm. A 5 μL aliquot of TEP (0.92 g/mL) was diluted to 5 mL with 5% TCA solution and diluted to prepare various concentrations ranging from […]. Each dilution was incubated and the absorbance against blank was measured after cooling. Standard curve was plotted using absorbance values vs amount of TEP which was converted from concentration.

OSI value [1]	SMILES	antioxidant effect on SL (TBA) [2]
quite stable to oxidation	CCCCCCCC(=O)OCC(COC(=O)CCCCCCC)OC(=O)CCCCCCC [tricaprylin, 1,2,3-trioctanoyl glycerol]	–
–	Cc1c(C)c2c(c(C)c1O)CC[C@@](C)(CCC[C@H](C)CCC[C@H](C)CCCC(C)C)O2 [α-tocopherol]	reduced the oxidation of SL significantly

Reference: US6369252B1, “Structured lipids” (The University of Georgia Research Foundation, Inc., priority 1998, dated 2002)
